Ends that are not written are not given here.
How the values were obtained:
Swiss TO mice = assay: Daily (Pro3)GIP for 60 days in Swiss TO mice previously fed high fat diet for 160 days; assay type: in vivo, mouse; details: high fat diet 160 days before, 25 nmoles/kg/day i.p. 60 days
Experimental: Parameters were measured at 3-4 daily intervals during a 60 day treatment period, which was preceded by a 160 days of feeding high fat diet. Mice were initially recruited into the study at 6-8 weeks of age. Control animals received standard rodent maintenance diet, 12.99 kj/g, (Harlan, UK) ad libitum. The animals were maintained on the respective diet for the duration of the study. High fat diet comprised 45% fat, 20% protein and 35% carbohydrate (26.15 kj/g) and was available ad libitum. (Special Diet Services, Essex, UK).
The results are shown in FIGS. 15A-B, which are a set of line graphs. Normal mice were fed the high fat diet indicated above ad libitum from 6-8 weeks of age. Treated groups of mice received intraperitoneal injection of ProGIP (25 nmoles/kg body weight) each day for a further 60 days while receiving the same high fat diet.

ob/ob mice = assay: 14 once-daily injections of GIP analogues in ob/ob mice; assay type: in vivo, mouse; details: 14 days daily, insulin 50 U/kg
Experimental: Animals. Obese diabetic (ob/ob) mice derived from the colony maintained at Aston University, UK (Bailey C. J. et al., 1982, Int. J. Obes. 6:11-21) were used at 14-18 weeks of age. Animals were age-matched, divided into groups and housed individually in an air-conditioned room at 22±2° C. with a 12 hour light: 12 hour dark cycle (08:00-20:00 hr). Drinking water and a standard rodent maintenance diet (Trouw Nutrition, Cheshire, UK) were freely available. All animal experiments were carried out in accordance with the UK Animals (Scientific Procedures) Act 1986.
Methods. […] Intraperitoneal glucose tolerance (18 mmol/kg body wt) and insulin sensitivity (50 U/kg body wt) tests were performed at the end of the study period. Blood samples taken from the cut tip of the tail vein of conscious mice at the times indicated in the Figures were immediately centrifuged using a Beckman microcentrifuge (Beckman Instruments, UK) for 30 seconds at 13,000×g. The resulting plasma was then aliquoted into fresh Eppendorf tubes and stored at −20° C. prior to glucose and insulin determinations.

normal mice = details: once daily 11 days (Irwin 2004); cited from earlier work
human GIP-R = target: T1, human GIP-R (Homo sapiens, UniProt P48546); assay: Cyclic AMP production in GIP-R transfected CHL cells; assay type: cell-based
T1 construct: expressed in transfected cells; host or cells: Chinese Hamster Lung (CHL) fibroblast cells, stably transfected
T1 sequence (P48546 22-466): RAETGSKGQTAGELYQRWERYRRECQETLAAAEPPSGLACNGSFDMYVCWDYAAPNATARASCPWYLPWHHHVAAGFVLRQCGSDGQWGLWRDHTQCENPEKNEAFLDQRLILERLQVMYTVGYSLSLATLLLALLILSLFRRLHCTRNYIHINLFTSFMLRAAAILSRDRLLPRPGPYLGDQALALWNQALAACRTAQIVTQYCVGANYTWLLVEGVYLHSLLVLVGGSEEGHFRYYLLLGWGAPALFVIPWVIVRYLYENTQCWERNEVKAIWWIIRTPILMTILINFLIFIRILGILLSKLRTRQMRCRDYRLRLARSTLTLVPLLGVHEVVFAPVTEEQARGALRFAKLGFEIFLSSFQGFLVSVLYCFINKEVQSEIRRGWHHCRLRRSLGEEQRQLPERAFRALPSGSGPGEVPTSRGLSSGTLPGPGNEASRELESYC
Method in brief: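 Cells washed in ice-cold HBS buffer (5.6 mm glucose, pH 7.4), then lysed in TCA/SDS solution with unlabelled cAMP and ATP. Tritiated cAMP formation measured by Dowex and alumina ion-exchange column chromatography.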

## YAPGTFISDYSIAMDKIHQQDFVNWLLAQKGKKNDWKHNITQ [(Pro^3)GIP]
Swiss TO mice
  body weight: promotes body weight loss
  energy intake: not associated with significant decrease in energy intake
ob/ob mice
  hypoglycemic action of insulin: significantly augmented
Normal mice
  glucose tolerance and insulin sensitivity: reversible impairment of glucose tolerance associated with decreased insulin sensitivity
Human GIP-R
  EC50: 207 nM
Human GIP-R; CHL, read-out: cAMP response in presence of 10^-7 M GIP (% GIP max)
  remaining activity at 0.1 µM: 66 ± 7%
Human GIP-R; in presence of GIP (10^-7 m)
  inhibition of GIP-stimulated cAMP production: significantly inhibited
